Data on 38 compounds can be found in patent publication US8008525B2, “Receptor function regulating agent” (Takeda Pharmaceutical Company Limited, priority 2003, dated 2011).

Where only a bound is given, the exact number is not on record here.

The target of this assay is T1, human 14273 receptor (Homo sapiens, UniProt Q5NUL3).
T1 construct: expressed in transfected cells
T1 sequence (Q5NUL3 1-361): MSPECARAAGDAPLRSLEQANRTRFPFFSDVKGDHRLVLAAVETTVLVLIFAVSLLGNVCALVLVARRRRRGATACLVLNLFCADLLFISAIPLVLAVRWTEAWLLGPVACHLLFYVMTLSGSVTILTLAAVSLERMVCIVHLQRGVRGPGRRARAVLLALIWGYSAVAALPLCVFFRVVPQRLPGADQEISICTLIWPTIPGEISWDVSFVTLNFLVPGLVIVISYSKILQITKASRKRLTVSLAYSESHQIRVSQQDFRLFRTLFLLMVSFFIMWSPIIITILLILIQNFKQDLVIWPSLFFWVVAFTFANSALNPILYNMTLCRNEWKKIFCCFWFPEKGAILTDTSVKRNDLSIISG
The assay can be described thus: Test Example 1: regulating effect for 14273 receptor function (agonist effect), change in intracellular calcium level by FLIPR. The format is cell-based. To be noted: CHO cell line (No. 104) expressing human 14273 receptor, change of fluorescent intensity after 35 seconds. Here is the method: CHO cell lines (No. 104) in which a human 14273 receptor has expressed was diluted to contain 3×10^4/100 μl cells, and dispensed in Black walled 96-well plate (Costar) at a density of 100 μl/well, followed by culturing overnight in a CO2 incubator. A change in intracellular calcium level was measured using FLIPR (Molecular Device). The method is described as below. 50 μg of Fluo-3AM (DOJIN) was dissolved in 21 μl of DMSO (DOJIN) and an equal volume of 20% pluronic acid (Molecular Probes) was added thereto, followed by mixing them. The mixture was added to 10.6 ml of the assay buffer [which is prepared by adding 10 ml of a solution, which is prepared by adding 20 ml of 1 M HEPES (pH 7.4, DOJIN) to 1 L of HBSS (Invitrogen), dissolving 710 mg of probenecid (Sigma) in 5 ml of 1 N NaOH, and further adding 5 ml of the above-mentioned HBSS/HEPES solution and mixing it.] supplemented with 105 μl of fetal bovine serum to prepare a fluorescent dye solution. The medium of the cell plate was removed, the fluorescent dye solution was dispensed in 100 μl each per well. The culturing was performed in a CO2 incubator for 1 hour to incorporate the fluorescent dye into the cells. The cells after culturing were washed with the assay buffer. The compounds to be added to the cells were diluted to each concentration with a buffer solution to which CHAPS (DOJIN) was added in 0.015%, and dispensed in a plate for the test sample. Following the pretreatment above, a change in intracellular calcium level after addition of the compound was determined with FLIPR to investigate the agonist effect. An EC50 value was calculated from dose-reaction curve using the change of fluorescent intensity after 35 seconds from the reaction initiation.
In general terms: A change in cytosolic calcium serves as a functional read-out for many receptors and channels.

With `O=C(O)CCc1cc(F)c(OCc2cccc(Oc3ccccc3)c2)c(F)c1` [Example 2, 3,5-Difluoro-4-[(3-phenoxyphenyl)methoxy]benzenepropanoic acid], the EC50 is at most 10 µM.
For the compound `O=C(O)CCc1ccc(OCc2cccc(Oc3ccccc3)c2)c(Cl)c1` [Example 4, 3-Chloro-4-[(3-phenoxyphenyl)methoxy]benzenepropanoic acid], the EC50 is at most 10 µM.
With `COc1cccc(COc2c(F)cc(CCC(=O)O)cc2F)c1` [Example 6, 3,5-Difluoro-4-[(3-methoxyphenyl)methoxy]benzenepropanoic acid], the EC50 was at most 10 µM.
For `CCOc1cccc(COc2c(F)cc(CCC(=O)O)cc2F)c1` [Example 8, 4-[(3-Ethoxyphenyl)methoxy]-3,5-difluorobenzenepropanoic acid], the EC50 is at most 10 µM.
As for `CC(C)Oc1cccc(COc2c(F)cc(CCC(=O)O)cc2F)c1` [Example 10], the figure is at most 10 µM.
Consider `O=C(O)CCc1ccc(OCc2cccc(Oc3ccccc3)c2)c(F)c1` [Example 12, 3-Fluoro-4-[(3-phenoxyphenyl)methoxy]benzenepropanoic acid], for which the EC50 is at most 10 µM.
In the case of `O=C(O)CCc1cc(F)c(OCc2ccccc2Oc2ccccc2)c(F)c1` [Example 16, 3,5-Difluoro-4-[(2-phenoxyphenyl)methoxy]benzenepropanoic acid], the concentration for a half-maximal effect (EC50) was at most 10 µM.
On to `O=C(O)CCc1ccc(OCc2ccccc2Oc2ccccc2)c(F)c1` [Example 18, 3-Fluoro-4-[(2-phenoxyphenyl)methoxy]benzenepropanoic acid], for which the EC50 is at most 10 µM.
With `O=C(O)CCc1cc(F)c(OCc2ccccc2-c2ccccc2)c(F)c1` [Example 20, 4-([1,1′-Biphenyl]-2-ylmethoxy)-3,5-difluorobenzenepropanoic acid], the EC50 is at most 10 µM.
For the compound `O=C(O)CCc1ccc(OCc2ccccc2-c2ccccc2)c(F)c1` [Example 22, 4-([1,1′-Biphenyl]-2-ylmethoxy)-3-fluorobenzenepropanoic acid], the half-maximal effective concentration (EC50) was at most 10 µM.
As for `O=C(O)CCc1ccc(OCc2ccccc2-c2ccccc2)c(Cl)c1` [Example 24, 4-([1,1′-Biphenyl]-2-ylmethoxy)-3-chlorobenzenepropanoic acid], the figure is at most 10 µM; as for `O=C(O)CCc1cc(F)c(OCc2ccccc2OC2CCCC2)c(F)c1` [Example 28, 3-(4-{[2-(cyclopentyloxy)benzyl]oxy}-3,5-difluorophenyl)propanoic acid], at most 10 µM.
Next, `CC(C)COc1ccccc1COc1c(F)cc(CCC(=O)O)cc1F` [Example 32, 3-{3,5-difluoro-4-[(2-isobutoxybenzyl)oxy]phenyl}propanoic acid]: at most 10 µM; `CC(C)Oc1ccccc1COc1c(F)cc(CCC(=O)O)cc1F` [Example 34, 3-{3,5-difluoro-4-[(2-isopropoxybenzyl)oxy]phenyl}propanoic acid]: at most 10 µM; `O=C(O)CCc1cc(F)c(OCc2ccccc2OC2CCCCC2)c(F)c1` [Example 36, 3-(4-{[2-(cyclohexyloxy)benzyl]oxy}-3,5-difluorophenyl)propanoic acid]: at most 10 µM.
Next, `Cc1ccccc1COc1c(F)cc(CCC(=O)O)cc1F` [Example 42, 3-{3,5-difluoro-4-[(2-methylbenzyl)oxy]phenyl}propanoic acid]: at most 10 µM.
For the compound `O=C(O)CCc1cc(F)c(OCc2ccccc2N2CCCCC2)c(F)c1` [Example 44, 3-{3,5-difluoro-4-[(2-piperidin-1-ylbenzyl)oxy]phenyl}propanoic acid], the half-maximal effective concentration (EC50) was at most 10 µM.
As for `COc1ccc(Oc2cccc(COc3c(F)cc(CCC(=O)O)cc3F)c2)cc1` [Example 46, 3-(3,5-difluoro-4-{[3-(4-methoxyphenoxy)benzyl]oxy}phenyl)propanoic acid], the figure is at most 10 µM; as for `O=C(O)CCc1cc(F)c(OCc2cccc(Oc3ccc(Cl)cc3)c2)c(F)c1` [Example 48, 3-(4-{[3-(4-chlorophenoxy)benzyl]oxy}-3,5-difluorophenyl)propanoic acid], at most 10 µM.
As for `O=C(O)CCc1cc(F)c(OCc2cccc(OC3CCCCC3)c2)c(F)c1` [Example 52, 3-(4-{[3-(cyclohexyloxy)benzyl]oxy}-3,5-difluorophenyl)propanoic acid], the EC50 was at most 10 µM.
`O=C(O)CCc1cc(F)c(OCc2cccc(Oc3ccc(F)cc3)c2)c(F)c1` [Example 54, 3-(3,5-difluoro-4-{[3-(4-fluorophenoxy)benzyl]oxy}phenyl)propanoic acid]: the concentration for a half-maximal effect (EC50) was at most 10 µM.
Consider `Cc1ccc(Oc2cccc(COc3c(F)cc(CCC(=O)O)cc3F)c2)cc1` [Example 56, 3-(3,5-difluoro-4-{[3-(4-methylphenoxy)benzyl]oxy}phenyl)propanoic acid], for which the half-maximal effective concentration (EC50) was at most 10 µM.
Turning to `O=C(O)CCc1cc(F)c(OCc2cccc(OC3CCCC3)c2)c(F)c1` [Example 58, 3-(4-{[3-(cyclopentyloxy)benzyl]oxy}-3,5-difluorophenyl)propanoic acid], the EC50 is at most 10 µM.
Next, `O=C(O)CCc1cc(F)c(OCc2cccc(Oc3ccccn3)c2)c(F)c1` [Example 60, 3-(3,5-difluoro-4-{[3-(pyridin-2-yloxy)benzyl]oxy}phenyl)propanoic acid]: at most 10 µM; `O=C(O)CCc1cc(F)c(OCc2cccc(Oc3ccsc3)c2)c(F)c1` [Example 62, 3-(3,5-difluoro-4-{[3-(3-thienyloxy)benzyl]oxy}phenyl)propanoic acid]: at most 10 µM.
With `O=C(O)CCc1cc(F)c(OCc2cccc(Oc3cccs3)c2)c(F)c1` [Example 64, 3-(3,5-difluoro-4-{[3-(2-thienyloxy)benzyl]oxy}phenyl)propanoic acid], the 50% effective concentration (EC50) was at most 10 µM.
In the case of `O=C(O)CCc1cc(F)c(OCc2cccc(Oc3nccs3)c2)c(F)c1` [Example 68, 3-(3,5-difluoro-4-{[3-(1,3-thiazol-2-yloxy)benzyl]oxy}phenyl)propanoic acid], the half-maximal effective concentration (EC50) is at most 10 µM.
Regarding `COc1cc(COc2ccc(CCC(=O)O)cc2F)cc(OC)c1` [Example 94, 3-{4-[(3,5-dimethoxybenzyl)oxy]-3-fluorophenyl}propanoic acid], the 50% effective concentration (EC50) is at most 10 µM.
As for `CCOc1cc(COc2ccc(CCC(=O)O)cc2F)cc(OCC)c1` [Example 96, 3-{4-[(3,5-diethoxybenzyl)oxy]-3-fluorophenyl}propanoic acid], the EC50 is at most 10 µM.
Consider `O=C(O)CCc1ccc(OCc2cccc3c2OCO3)c(F)c1` [Example 102, 3-[4-(1,3-benzodioxol-4-ylmethoxy)-3-fluorophenyl]propanoic acid], for which the EC50 is at most 10 µM.
On to `O=C(O)CCc1ccc(OCc2cc(O)cc(Oc3ccccc3)c2)c(F)c1` [Example 118, 3-{3-fluoro-4-[(3-hydroxy-5-phenoxybenzyl)oxy]phenyl}propanoic acid], for which the EC50 is at most 10 µM.
On to `CC(C)Oc1cc(COc2ccc(CCC(=O)O)cc2F)cc(Oc2ccccc2)c1` [Example 124, 3-{3-fluoro-4-[(3-isopropoxy-5-phenoxybenzyl)oxy]phenyl}propanoic acid], for which the EC50 is at most 10 µM.
For the compound `CC(C)COc1cccc(COc2c(F)cc(CCC(=O)O)cc2F)c1` [Example 135, 3-{3,5-difluoro-4-[(3-isobutoxybenzyl)oxy]phenyl}propanoic acid], the EC50 was at most 10 µM.
Next, `O=C(O)CCc1ccc(OCc2cccc(Oc3ccc(Cl)cc3)c2)c(F)c1` [Example 163, 3-(3-fluoro-4-{[3-(4-chlorophenoxy)benzyl]oxy}phenyl)propanoic acid]: at most 10 µM.
As for `Cc1cccc(Oc2cccc(COc3ccc(CCC(=O)O)cc3F)c2)c1` [Example 169, 3-(3-fluoro-4-{[3-(3-methylphenoxy)benzyl]oxy}phenyl)propanoic acid], the figure is at most 10 µM; as for `Cc1ccc(Oc2cccc(COc3ccc(CCC(=O)O)cc3F)c2)cc1` [Example 171, 3-(3-fluoro-4-{[3-(4-methylphenoxy)benzyl]oxy}phenyl)propanoic acid], at most 10 µM; as for `Cc1cc(CCC(=O)O)ccc1OCc1cccc(Oc2ccccc2)c1` [Example 173, 3-(3-methyl-4-[(3-phenoxybenzyl)oxy]phenyl)propanoic acid], at most 10 µM.
In the case of `Cc1cc(CCC(=O)O)ccc1OCc1cccc(OC(C)C)c1` [Example 178, 3-{4-[(3-isopropoxybenzyl)oxy]-3-methylphenyl}propanoic acid], the concentration for a half-maximal effect (EC50) was at most 10 µM.

By EC50 is commonly meant the concentration that produces a half-maximal response.
